# Data taken from patent publication US20180110824A1, “Macrocyclic Modulators of the Ghrelin Receptor” (Ocera Therapeutics, Inc., priority 2016, published 2018).
# pEC50, pKi: −log10 of the molar value.
# Biological target: motilin receptor (Homo sapiens, UniProt O43193)
# Experiment: Selectivity for the ghrelin receptor versus the motilin receptor
# Format: binding
# Conditions: not given
# Description: The level of agonist activity and selectivity for representative compounds of the invention are shown below in Table 4.
# motilin receptor, sequence (O43193 whole entry, species assumed): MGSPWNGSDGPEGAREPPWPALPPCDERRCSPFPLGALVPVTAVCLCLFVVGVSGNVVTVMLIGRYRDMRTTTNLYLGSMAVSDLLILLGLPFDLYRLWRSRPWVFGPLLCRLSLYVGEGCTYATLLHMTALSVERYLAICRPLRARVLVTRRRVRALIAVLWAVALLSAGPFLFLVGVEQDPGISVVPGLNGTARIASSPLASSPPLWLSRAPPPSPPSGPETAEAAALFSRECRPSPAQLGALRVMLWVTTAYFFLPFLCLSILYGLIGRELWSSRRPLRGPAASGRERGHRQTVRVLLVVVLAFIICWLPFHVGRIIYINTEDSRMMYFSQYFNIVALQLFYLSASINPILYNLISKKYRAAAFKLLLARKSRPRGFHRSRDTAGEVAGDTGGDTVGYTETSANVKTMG
row,Compound,Selectivity
1,C[C@@H]1C(=O)N[C@H](Cc2ccc(Cl)cc2Cl)C(=O)NCCCc2ccccc2OCCN[C@@H](C2CC2)C(=O)N1C [compound 314],>5500/1
2,C[C@H]1NC(=O)C2(CCCC2)NCCOc2ccccc2/C=C/CNC(=O)[C@H](Cc2cccc(Cl)c2)NC1=O [compound 351],450/1
3,C[C@@H]1C(=O)N[C@H](Cc2ccc(F)cc2)C(=O)NCCCc2ccc(F)cc2OCCN[C@@H](C2CC2)C(=O)N1C [compound 372],2500/1
4,C[C@@H]1C(=O)N[C@H](Cc2ccc(F)cc2)C(=O)NCCCc2cc(NS(C)(=O)=O)ccc2OCCN[C@@H](C2CC2)C(=O)N1C [compound 374],250/1
5,CC[C@H](C)[C@@H]1NCCOc2ccc(F)cc2CCCNC(=O)[C@H](Cc2cccc(Cl)c2)NC(=O)C2(CCCC2)NC1=O [compound 382],74/1

# Biological target: T1, human growth hormone secretagogue receptor (hGHS-R1a) (Homo sapiens, UniProt Q92847)
# T1 construct: purchased PerkinElmer BioSignal #RBHGHSM; host or cells: HEK-293, stably transfected
# Experiment: Competitive radioligand binding assay (ghrelin receptor), [125I]-ghrelin displacement on GHS-R/HEK 293 membranes
# Conditions: Ki (nM), Binding activity at the human ghrelin receptor, [125I]-ghrelin displacement
# T1 sequence (Q92847 whole entry): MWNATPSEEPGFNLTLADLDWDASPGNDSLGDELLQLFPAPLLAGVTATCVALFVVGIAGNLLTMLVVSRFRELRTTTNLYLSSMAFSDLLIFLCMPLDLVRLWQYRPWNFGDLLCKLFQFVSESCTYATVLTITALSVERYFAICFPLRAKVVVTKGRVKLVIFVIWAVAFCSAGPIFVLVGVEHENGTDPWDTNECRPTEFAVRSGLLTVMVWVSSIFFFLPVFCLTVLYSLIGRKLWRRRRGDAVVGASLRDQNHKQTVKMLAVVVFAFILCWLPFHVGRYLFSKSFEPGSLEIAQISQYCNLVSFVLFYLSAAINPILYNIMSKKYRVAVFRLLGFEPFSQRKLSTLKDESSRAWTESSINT
row,Compound,Ki
1,CCC(C)[C@@H]1NCCOc2ccccc2CCCNC(=O)[C@@H](Cc2ccc(Cl)cc2)NC(=O)[C@@H](C)N(C)C1=O (stereo partly drawn) [compound 25],0.1 to 10 nM

# Same assay, conditions: Ki (nM), Table 4; TFA salts unless otherwise noted
row,Compound,Ki
1,CCC(C)[C@@H]1NCCOc2ccccc2CCCNC(=O)[C@@H](Cc2ccc(Cl)cc2)NC(=O)[C@@H](C)N(C)C1=O (stereo partly drawn) [compound 25],0.1 to 10 nM

# Same assay, conditions: Table 3B; binding activity at the human ghrelin receptor; read-out: Ki
row,Compound,pKi
1,C[C@@H]1C(=O)N[C@H](Cc2ccc(Cl)cc2Cl)C(=O)NCCCc2ccccc2OCCN[C@@H](C2CC2)C(=O)N1C [compound 314],8.00 to 10.00
2,C[C@@H]1C(=O)N[C@H](Cc2ccc(F)cc2)C(=O)NCCCc2ccc(F)cc2OCCN[C@@H](C2CC2)C(=O)N1C [compound 372],8.00 to 10.00
3,C[C@@H]1C(=O)N[C@H](Cc2ccc(F)cc2)C(=O)NCCCc2cc(NS(C)(=O)=O)ccc2OCCN[C@@H](C2CC2)C(=O)N1C [compound 374],7.00 to 8.00
4,CC[C@H](C)[C@@H]1NCCOc2ccc(F)cc2CCCNC(=O)[C@H](Cc2cccc(Cl)c2)NC(=O)C2(CCCC2)NC1=O [compound 382],7.00 to 8.00

# Same assay, conditions: Table 3C; read-out: Ki
row,Compound,pKi
1,C[C@H]1NC(=O)C2(CCCC2)NCCOc2ccccc2/C=C/CNC(=O)[C@H](Cc2cccc(Cl)c2)NC1=O [compound 351],7.00 to 8.00

# Same assay, conditions: Table 4; TFA salts unless otherwise noted; read-out: Ki
row,Compound,pKi
1,C[C@@H]1C(=O)N[C@H](Cc2ccc(Cl)cc2Cl)C(=O)NCCCc2ccccc2OCCN[C@@H](C2CC2)C(=O)N1C [compound 314],8.00 to 10.00
2,C[C@H]1NC(=O)C2(CCCC2)NCCOc2ccccc2/C=C/CNC(=O)[C@H](Cc2cccc(Cl)c2)NC1=O [compound 351],7.00 to 8.00
3,C[C@@H]1C(=O)N[C@H](Cc2ccc(F)cc2)C(=O)NCCCc2ccc(F)cc2OCCN[C@@H](C2CC2)C(=O)N1C [compound 372],8.00 to 10.00
4,C[C@@H]1C(=O)N[C@H](Cc2ccc(F)cc2)C(=O)NCCCc2cc(NS(C)(=O)=O)ccc2OCCN[C@@H](C2CC2)C(=O)N1C [compound 374],7.00 to 8.00
5,CC[C@H](C)[C@@H]1NCCOc2ccc(F)cc2CCCNC(=O)[C@H](Cc2cccc(Cl)c2)NC(=O)C2(CCCC2)NC1=O [compound 382],7.00 to 8.00

# Test system: morphine-delayed gastric emptying and gastrointestinal transit in rats
# Experiment: Opioid (morphine)-delayed gastric emptying and gastrointestinal transit in rats
# Format: in vivo, rat
# Conditions: 3 mg/kg, s.c., rats, FIG. 16A
# Description: Opioid analgesics, such as morphine, are well known to delay gastrointestinal transit which is an important side-effect for this class of drugs. The clinical term for this syndrome is opioid bowel dysfunction (OBD). Importantly, patients recovering from abdominal surgery experience post-operative ileus that is further exacerbated by concomitant opioid therapy for post-surgical pain.
# • 1. Rats (male, Sprague-Dawley, 250-300 g) are implanted with jugular vein catheters to accommodate dosing of test articles. • 2. Overnight-fasted rats are administered morphine (3 mg/kg s.c.). • 3. […] Radioactivity (^99mTc) in each tissue isolate is measured as a means of measuring the transit of the meal.
row,Compound,gastric emptying and intestinal transit
1,"CN1CC[C@]23c4c5ccc(O)c4O[C@H]2[C@@H](O)C=C[C@H]3[C@H]1C5 [Morphine, morphine, reference compound]",significantly delayed gastric emptying and intestinal transit

# Test system: not listed separately
# Experiment: Pharmacokinetic analysis in rats (i.v., s.c., p.o.)
# Format: in vivo
# Conditions: male, Sprague-Dawley, plasma, iv, 2 mg/kg, rat
# Protocol: • 1. Intravenous (i.v.): 2 mg/kg • 2. Subcutaneous (s.c): 2 mg/kg • 3. Oral (p.o.): 8 mg/kg
# Whole blood samples were chilled and immediately processed by centrifugation to obtain plasma.
# Plasma samples were stored frozen (−70° C.) until analysis.
row,Compound,clearance
1,CCC(C)[C@@H]1NCCOc2ccccc2CCCNC(=O)[C@@H](Cc2ccc(Cl)cc2)NC(=O)[C@@H](C)N(C)C1=O (stereo partly drawn) [compound 25],67 mL/min/kg

# Same assay, conditions: male, Sprague-Dawley, plasma, iv, 2 mg/kg, rat, read-out: Elimination (t1/2, min)
row,Compound,half-life
1,CCC(C)[C@@H]1NCCOc2ccccc2CCCNC(=O)[C@@H](Cc2ccc(Cl)cc2)NC(=O)[C@@H](C)N(C)C1=O (stereo partly drawn) [compound 25],31 min

# Test system: gastric emptying in fasted rats
# Experiment: Gastric emptying in fasted rats (phenol red methylcellulose meal)
# Format: in vivo, rat
# Conditions: 30 μg/kg, fasted rats
# Protocol: To examine the effects of compounds of the invention in a model for gastroparesis, compounds were evaluated for possible effects on gastric emptying in fasted rats.
# GHRP-6 and test samples were dissolved in vehicle of 9% HPBCD/0.9% NaCl. Immediately following oral administration of methylcellulose (2%) containing phenol red (0.05%) (2 mL/rat), test substances or vehicle (9% HPBCD/0.9% NaCl) were each administered intravenously (i.v.) at a dosing volume of 5 mL/kg.
# Male Wistar rats were provided by LASCO (A Charles River Licensee Corporation, Taiwan). Space allocation for 6 animals was 45×23×15 cm. Animals were housed in APEC® cages and maintained in a controlled temperature (22° C.-24° C.) and humidity (60% -80%) environment with 12 h light, 12 h dark cycles for at least one week in the laboratory prior to being used. Free access to standard lab chow for rats (Lab Diet, Rodent Diet, PMI Nutrition International, USA) and tap water was granted. All aspects of this work including housing, experimentation and disposal of animals were performed in general accordance with the Guide for the Care and Use of Laboratory Animals (National Academy Press, Washington, D.C., 1996).
# Test substances were each administered intravenously to a group of 5 O/N-fasted Wistar derived male rats weighing 200±20 g immediately after methylcellulose (2%) containing phenol red (0.05%) was administered orally at 2 mL/animal. The animals were then sacrificed 15 minutes later. The stomach was immediately removed, homogenized in 0.1 N NaOH (5 mL) and centrifuged. Following protein precipitation by 20% trichloroacetic acid (0.5 mL)and re-alkalization of the supernatant with 0.1 N NaOH, total phenol red remaining in the stomach was determined by a colorimetric method at 560 nm. A 30 percent or more (≥30%) increase in gastric emptying, detected as the decrease in phenol red concentration in the stomach relative to the vehicle control group, is considered significant.
# • 1. Overnight-fasted rats (male Wistar, ˜200 g, N=5/group) were given a meal of methylcellulose (2%) by intragastric gavage. The meal was labeled with phenol red (0.05%). • 2. […] Animals were sacrificed 15 minutes later; the stomach was immediately removed and homogenized in 0.1 N NaOH and centrifuged. • 4. Total phenol red remaining in the stomach was quantified by a colorimetric method at 560 nm. • 5. A >30% increase in gastric emptying, detected based on the phenol red concentration in comparison to the control group, is considered significant.
row,Compound,gastric emptying
1,CCC(C)[C@@H]1NCCOc2ccccc2CCCNC(=O)[C@@H](Cc2ccc(Cl)cc2)NC(=O)[C@@H](C)N(C)C1=O (stereo partly drawn) [compound 25],demonstrated gastric emptying

# Same assay, conditions: 100 μg/kg i.v., fasted rats
row,Compound,increase in gastric emptying relative to the vehicle control group
1,CCC(C)[C@@H]1NCCOc2ccccc2CCCNC(=O)[C@@H](Cc2ccc(Cl)cc2)NC(=O)[C@@H](C)N(C)C1=O (stereo partly drawn) [compound 25],39%

# Same assay, conditions: 10 mg/kg i.v., fasted rats
row,Compound,increase in gastric emptying relative to the vehicle control group
1,"CCN(CC)CCNC(=O)c1cc(Cl)c(N)cc1OC [metoclopramide, Metoclopramide, reference compound]",41%

# Same assay, conditions: i.v., FIGS. 14A and 14B
row,Compound,gastric emptying of a meal in naïve rat
1,"CCN(CC)CCNC(=O)c1cc(Cl)c(N)cc1OC [metoclopramide, Metoclopramide, reference compound]",demonstrated significant gastric emptying

# Biological target: T2, human ghrelin receptor (hGHS-R1a) (Homo sapiens, UniProt Q92847)
# T2 construct: host or cells: CHO-K1 co-expressing Gα16 and mitochondrially targeted aequorin
# Experiment: Aequorin functional assay (ghrelin receptor), CHO-K1 cells co-expressing Gα16 and aequorin
# Format: cell-based
# Conditions: EC50 (nM), Table 4; functional (agonist) activity; TFA salts unless otherwise noted
# Protocol: This cell line is typically constructed by transfection of the human ghrelin receptor into CHO-K1 cells co-expressing Gα16 and the mitochondrially targeted Aequorin (Ref #ES-WT-A5). • 1. […] Assay buffer: DMEM (Dulbecco's Modified Eagles Medium) containing 0.1% BSA (bovine serum albumin; pH 7.0). • 3. Coelenterazine (Molecular Probes, Leiden, The Netherlands). • Final test concentrations (N=8) for compounds of the invention: 10, 1, 0.3, 0.1, 0.03, 0.01, 0.003, 0.001 μM.
# Stock solutions of compounds (10 mM in 100% DMSO) were provided frozen on dry ice and stored at −20° C. prior to use. […] Assay plates were then prepared by appropriate dilution in DMEM medium containing 0.1% BSA. Under these conditions, the maximal final DMSO concentration in the assay was <0.6%.
# AequoScreen™ cells were collected from culture plates with Ca^2+ and Mg^2+-free phosphate buffered saline (PBS) supplemented with 5 mM EDTA, pelleted for 2 min at 1000×g re-suspended in DMEM—Ham's F12 containing 0.1% BSA at a density of 5×10^6 cells/mL, and incubated O/N at rt in the presence of 5 μM coelenterazine. After loading, cells were diluted with assay buffer to a concentration of 5×10^5 cells/mL.
# For agonist testing, 50 μL of the cell suspension was mixed with 50 μL of the appropriate concentration of test compound or ghrelin (reference agonist) in 96-well plates (duplicate samples). Ghrelin (reference agonist) was tested at several concentrations concurrently with the test compounds in order to validate the experiment. The emission of light resulting from receptor activation in response to ghrelin or test compounds was recorded using the Hamamatsu FDSS 6000 reader (Hamamatsu Photonics K.K., Japan).
# Results were expressed as Relative Light Units (RLU). […] EC50, Hill slope and % Emax values are reported.
# • 1. Assay performed on CHO-K1 cells expressing the transfected, cloned human ghrelin receptor (hGHS-R1a) and Gα16. • 2. Suspended cells incubated O/N with coelenterazine. • 3. Stimulation of hGHS-R1a activates Gα16, causing […] Ca2+ release which ultimately leads to the oxidation of coelenterazine and the emission of a quantitative luminescent signal. • 4. Ghrelin was used as the positive control. • 5.
# T2 sequence (Q92847 whole entry): as above
row,Compound,EC50
1,CCC(C)[C@@H]1NCCOc2ccccc2CCCNC(=O)[C@@H](Cc2ccc(Cl)cc2)NC(=O)[C@@H](C)N(C)C1=O (stereo partly drawn) [compound 25],1 to 100 nM

# Same assay, conditions: Table 4; functional (agonist) activity; TFA salts unless otherwise noted; read-out: EC50
row,Compound,pEC50
1,C[C@@H]1C(=O)N[C@H](Cc2ccc(Cl)cc2Cl)C(=O)NCCCc2ccccc2OCCN[C@@H](C2CC2)C(=O)N1C [compound 314],7.00 to 9.00
2,C[C@H]1NC(=O)C2(CCCC2)NCCOc2ccccc2/C=C/CNC(=O)[C@H](Cc2cccc(Cl)c2)NC1=O [compound 351],7.00 to 9.00
3,C[C@@H]1C(=O)N[C@H](Cc2ccc(F)cc2)C(=O)NCCCc2ccc(F)cc2OCCN[C@@H](C2CC2)C(=O)N1C [compound 372],7.00 to 9.00
4,C[C@@H]1C(=O)N[C@H](Cc2ccc(F)cc2)C(=O)NCCCc2cc(NS(C)(=O)=O)ccc2OCCN[C@@H](C2CC2)C(=O)N1C [compound 374],7.00 to 9.00
5,CC[C@H](C)[C@@H]1NCCOc2ccc(F)cc2CCCNC(=O)[C@H](Cc2cccc(Cl)c2)NC(=O)C2(CCCC2)NC1=O [compound 382],6.00 to 7.00
